We go through 1 compound from paper PMC9750798, “A metabotropic glutamate receptor affects the growth and development of Schistosoma japonicum” (Frontiers in Microbiology, 2022).

The structures appear in SMILES notation.

This experiment has as its target T1, SjGRM7 (Schistosoma japonicum, UniProt A0A4Z2D6G5).
T1 construct: gene EWB00_004136; S. mansoni homologue is Smp_128940
T1 sequence (A0A4Z2D6G5 24-1036): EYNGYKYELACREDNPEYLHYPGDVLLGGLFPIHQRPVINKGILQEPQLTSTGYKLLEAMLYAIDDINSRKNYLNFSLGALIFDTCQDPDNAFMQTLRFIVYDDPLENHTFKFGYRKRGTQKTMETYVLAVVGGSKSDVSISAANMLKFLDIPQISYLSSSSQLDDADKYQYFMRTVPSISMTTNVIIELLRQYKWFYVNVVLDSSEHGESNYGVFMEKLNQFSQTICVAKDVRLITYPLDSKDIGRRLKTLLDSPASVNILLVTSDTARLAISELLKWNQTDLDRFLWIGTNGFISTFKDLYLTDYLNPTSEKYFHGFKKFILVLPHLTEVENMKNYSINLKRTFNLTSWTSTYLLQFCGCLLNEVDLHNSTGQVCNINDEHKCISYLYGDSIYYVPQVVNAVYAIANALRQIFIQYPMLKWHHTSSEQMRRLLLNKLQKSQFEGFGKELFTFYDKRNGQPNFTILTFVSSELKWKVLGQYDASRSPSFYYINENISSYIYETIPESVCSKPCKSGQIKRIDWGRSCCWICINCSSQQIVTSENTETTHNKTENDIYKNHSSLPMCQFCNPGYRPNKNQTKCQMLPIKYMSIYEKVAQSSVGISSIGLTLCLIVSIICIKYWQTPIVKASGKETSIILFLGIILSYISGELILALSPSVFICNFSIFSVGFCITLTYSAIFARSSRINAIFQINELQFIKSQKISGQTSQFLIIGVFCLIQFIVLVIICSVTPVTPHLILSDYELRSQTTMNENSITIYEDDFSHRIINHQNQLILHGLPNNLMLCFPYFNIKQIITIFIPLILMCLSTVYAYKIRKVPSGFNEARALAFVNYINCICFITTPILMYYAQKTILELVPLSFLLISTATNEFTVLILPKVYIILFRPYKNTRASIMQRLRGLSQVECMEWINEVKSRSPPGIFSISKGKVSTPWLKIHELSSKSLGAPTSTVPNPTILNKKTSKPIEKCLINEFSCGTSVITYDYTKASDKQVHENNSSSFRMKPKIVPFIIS
As to the kind of experiment: Fluo-4 calcium mobilization in transfected HEK293T cells. Type of experiment: cell-based. To be noted: agonist; co-expressed G-alpha16; dose series. Background: Calcium flux is commonly read through the fluorescence of an indicator in the cells.

As for `N[C@@H](CCC(=O)O)C(=O)O` [L-glutamate], the “Fluo-4 calcium mobilization in transfected HEK293T cells” value was “SjGRM and SjGRM7 responded only to L-glutamate”.
